Test results reported in ChEMBL document CHEMBL3714729, “Heterocyclic compounds for the inhibition of pask” (2012).

What was measured:
[1] = target: T1, PAS domain-containing serine/threonine-protein kinase (Homo sapiens, UniProt Q96RG2); assay: Inhibition of N-terminal GST-tagged human recombinant PASK kinase domain (879 to 1323 residues) expressed in insect cells using MBP protein substrate incubated for 120 mins in presence of [33P]ATP by scintillation counting based radiochemical assay
[2] = target: T1, PAS domain-containing serine/threonine-protein kinase; assay: Inhibition of human recombinant PASK using Ulight-peptide substrate incubated for 2 hrs by TR-FRET assay
[3] = target: Casein kinase II subunit alpha' (Homo sapiens, UniProt P19784); assay: Inhibition of GST-tagged full-length purified human CK2a2 using RRRDDDSDDD substrate incubated for 120 mins in presence of [33P]ATP by scintillation counting based biochemical assay
Chain of Casein kinase II subunit alpha' (P19784 whole entry): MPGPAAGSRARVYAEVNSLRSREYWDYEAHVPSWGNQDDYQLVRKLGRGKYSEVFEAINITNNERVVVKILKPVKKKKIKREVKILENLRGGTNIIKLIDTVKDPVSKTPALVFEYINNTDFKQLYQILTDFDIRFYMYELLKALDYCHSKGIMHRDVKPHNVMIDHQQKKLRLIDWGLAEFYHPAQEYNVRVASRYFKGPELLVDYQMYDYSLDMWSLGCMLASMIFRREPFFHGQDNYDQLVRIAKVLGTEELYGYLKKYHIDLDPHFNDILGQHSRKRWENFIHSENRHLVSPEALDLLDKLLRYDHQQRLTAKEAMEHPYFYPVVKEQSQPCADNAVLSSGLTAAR

T1 sequence (Q96RG2 whole entry, the tested form may be a part): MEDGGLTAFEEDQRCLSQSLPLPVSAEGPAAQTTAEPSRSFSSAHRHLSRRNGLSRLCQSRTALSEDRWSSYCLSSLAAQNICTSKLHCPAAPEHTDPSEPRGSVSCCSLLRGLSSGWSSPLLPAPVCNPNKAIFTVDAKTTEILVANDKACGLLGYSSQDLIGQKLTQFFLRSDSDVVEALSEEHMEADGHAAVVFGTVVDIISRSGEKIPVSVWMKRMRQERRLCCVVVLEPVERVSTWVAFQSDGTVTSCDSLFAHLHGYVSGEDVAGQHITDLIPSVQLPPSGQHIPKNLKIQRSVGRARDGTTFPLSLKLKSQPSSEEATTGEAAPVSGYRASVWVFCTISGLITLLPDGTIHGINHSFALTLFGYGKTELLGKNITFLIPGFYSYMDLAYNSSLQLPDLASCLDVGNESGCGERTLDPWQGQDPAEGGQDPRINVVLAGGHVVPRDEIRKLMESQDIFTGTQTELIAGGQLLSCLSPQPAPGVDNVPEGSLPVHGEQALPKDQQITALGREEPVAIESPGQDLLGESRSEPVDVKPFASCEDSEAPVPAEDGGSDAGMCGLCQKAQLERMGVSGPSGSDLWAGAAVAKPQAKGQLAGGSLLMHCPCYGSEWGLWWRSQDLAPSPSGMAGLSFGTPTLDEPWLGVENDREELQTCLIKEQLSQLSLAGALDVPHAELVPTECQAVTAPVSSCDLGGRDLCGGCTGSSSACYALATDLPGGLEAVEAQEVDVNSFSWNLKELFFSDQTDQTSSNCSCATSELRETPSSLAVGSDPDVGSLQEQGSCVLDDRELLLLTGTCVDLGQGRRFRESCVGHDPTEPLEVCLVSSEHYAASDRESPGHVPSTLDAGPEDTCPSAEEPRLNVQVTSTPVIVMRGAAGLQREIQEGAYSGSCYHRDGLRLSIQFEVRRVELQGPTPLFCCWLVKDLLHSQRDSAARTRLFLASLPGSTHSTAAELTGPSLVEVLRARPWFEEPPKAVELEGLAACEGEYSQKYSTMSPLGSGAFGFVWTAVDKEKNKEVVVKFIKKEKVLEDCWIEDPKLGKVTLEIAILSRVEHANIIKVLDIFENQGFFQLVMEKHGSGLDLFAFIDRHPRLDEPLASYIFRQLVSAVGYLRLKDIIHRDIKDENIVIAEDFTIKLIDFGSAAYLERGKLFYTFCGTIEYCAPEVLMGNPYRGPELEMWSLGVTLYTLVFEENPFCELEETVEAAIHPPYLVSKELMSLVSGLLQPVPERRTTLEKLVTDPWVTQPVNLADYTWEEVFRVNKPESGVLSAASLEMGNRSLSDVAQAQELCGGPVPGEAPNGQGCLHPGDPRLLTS

Compound	IC50 [1]	IC50 [2]	IC50 [3]
O=c1cc(-c2ccc3c(c2)OCCO3)[nH]c2c(-c3ccccc3)c(O)nn12	≤ 10 µM	≤ 10 µM	
O=c1cc(-c2ccc(Cl)cc2)[nH]c2c(-c3cccnc3)c(O)nn12	≤ 10 µM	≤ 10 µM	≥ 10 µM
COc1ccc(-c2cc(=O)n3nc(C)c(Cc4ccccc4)c3[nH]2)cc1OC			≥ 10 µM
COc1cccc(-c2cc(=O)n3nc(C)c(Cc4ccc(Cl)cc4)c3[nH]2)c1			≥ 10 µM
CCCc1c(C)nn2c(=O)cc(-c3ccc(OC)cc3)[nH]c12	≤ 10 µM	≤ 10 µM	≥ 10 µM
O=c1cc(-c2ccc(F)cc2)[nH]c2c(-c3ccccn3)c(O)nn12	≤ 10 µM	≤ 10 µM	≥ 10 µM
O=C(NCc1ccccc1)c1cnn2c(=O)cc(-c3ccc4c(c3)OCCO4)[nH]c12	≤ 10 µM	≤ 10 µM	
CN1CCN(C(=O)c2cnn3c(=O)cc(-c4ccc5c(c4)OCCO5)[nH]c23)CC1	≤ 10 µM	≤ 10 µM	
Nc1nn2c(=O)cc(-c3ccc4c(c3)OCO4)[nH]c2c1-c1ccccn1	≤ 10 µM	≤ 10 µM	≤ 10 µM
O=c1cc(-c2ccc3c(c2)CCO3)[nH]c2c(-c3cccnc3)c(O)nn12	≤ 10 µM	≤ 10 µM	≤ 10 µM
Nc1nn2c(=O)cc(-c3ccc4[nH]ncc4c3)[nH]c2c1-c1ccccn1	≤ 10 µM	≤ 10 µM	≤ 10 µM
Cc1nn2c(=O)cc(-c3ccccc3)[nH]c2c1Cc1ccc(Cl)cc1			≤ 10 µM
Nc1nn2c(=O)cc(-c3ccc4c(c3)OCCO4)[nH]c2c1-c1ccccc1	≤ 10 µM	≤ 10 µM	≤ 10 µM
O=c1cc(-c2ccc3c(c2)OCCO3)[nH]c2c(-c3ccccn3)c(O)nn12	≤ 10 µM	≤ 10 µM	
COc1ccc(-c2cc(=O)n3ncc(-c4ccccn4)c3[nH]2)c(OC)c1	≤ 10 µM	≤ 10 µM	
Cc1nn2c(=O)cc(-c3ccc(OC(C)C)cc3)[nH]c2c1Cc1ccc(Cl)cc1			≥ 10 µM
Cc1nn2c(=O)cc(-c3ccc(C(F)(F)F)cc3)[nH]c2c1Cc1ccc(Cl)cc1			≥ 10 µM
Cc1nn2c(=O)cc(-c3ccc4c(c3)OCO4)[nH]c2c1Cc1cccc(Cl)c1	≤ 10 µM	≤ 10 µM	≤ 10 µM
O=c1cc(-c2ccc3c(c2)OCCO3)[nH]c2c(-c3ccccc3)c(C(F)(F)F)nn12	≤ 10 µM	≤ 10 µM	≤ 10 µM
O=c1cc(-c2ccc(Cl)cc2)[nH]c2c(-c3ccccn3)cnn12	≤ 10 µM	≤ 10 µM	
COc1ccc(-c2cc(=O)n3nc(C)c(Cc4ccc(Cl)cc4)c3[nH]2)cc1OC			≥ 10 µM

Compound	IC50 [1]	IC50 [2]	IC50 [3]
O=c1cc(-c2ccc3occc3c2)[nH]c2c(-c3cccnc3)c(O)nn12	≤ 10 µM	≤ 10 µM	≤ 10 µM
O=C(c1cnn2c(=O)cc(-c3ccc4c(c3)OCCO4)[nH]c12)N1CCOCC1	≤ 10 µM	≤ 10 µM	
O=c1cc(-c2ccc3c(c2)OCO3)[nH]c2c(Cc3ccccc3)cnn12	≤ 10 µM	≤ 10 µM	≤ 10 µM
O=c1cc(-c2ccc3[nH]ncc3c2)[nH]c2c(-c3ccccn3)cnn12	≤ 10 µM	≤ 10 µM	≤ 10 µM
COC(=O)c1ccc(-c2cc(=O)n3nc(C)c(Cc4ccc(Cl)cc4)c3[nH]2)cc1			≥ 10 µM
O=c1cc(-c2ccc3occc3c2)[nH]c2c(-c3ccccc3)cnn12	≤ 10 µM	≤ 10 µM	≤ 10 µM
COc1ccc(-c2cc(=O)n3nc(C)c(Cc4ccccc4Cl)c3[nH]2)cc1		≤ 10 µM	≥ 10 µM
Cc1nn2c(=O)cc(-c3ccc4c(c3)OCO4)[nH]c2c1Cc1ccc(Cl)cc1	≤ 10 µM	≤ 10 µM	≤ 10 µM
Cc1nn2c(=O)cc(-c3ccc(C(N)=O)cc3)[nH]c2c1Cc1ccc(Cl)cc1			≥ 10 µM
COc1ccc(-c2cc(=O)n3nc(O)c(-c4ccccn4)c3[nH]2)c(OC)c1	≤ 10 µM	≤ 10 µM	≥ 10 µM
COc1ccc(-c2cc(=O)n3ncc(-c4cccnc4)c3[nH]2)cc1	≤ 10 µM	≤ 10 µM	≤ 10 µM
O=c1cc(-c2ccc3c(c2)CCO3)[nH]c2c(-c3ccccn3)c(O)nn12	≤ 10 µM	≤ 10 µM	≥ 10 µM
O=c1cc(-c2ccc3c(c2)OCO3)[nH]c2c(-c3ncccc3F)cnn12	≤ 10 µM	≤ 10 µM	≤ 10 µM
O=c1cc(-c2ccc3occc3c2)[nH]c2c(-c3ccccn3)c(O)nn12	≤ 10 µM	≤ 10 µM	≤ 10 µM
N#Cc1cnn2c(=O)cc(-c3ccc4c(c3)OCCO4)[nH]c12	≤ 10 µM	≤ 10 µM	≤ 10 µM
COc1ccc2c(c1)CCc1c-2[nH]c2c(-c3ccccn3)cnn2c1=O	≤ 10 µM	≤ 10 µM	≤ 10 µM
O=c1cc(-c2ccc(Cl)cc2)[nH]c2c(-c3ccccn3)c(O)nn12	≤ 10 µM	≤ 10 µM	≥ 10 µM
Nc1nn2c(=O)cc(-c3ccc4[nH]nnc4c3)[nH]c2c1-c1ccccn1	≤ 10 µM	≤ 10 µM	≤ 10 µM
Cc1nn2c(=O)cc(-c3ccccc3)[nH]c2c1Cc1ccccc1			≥ 10 µM
CN(Cc1ccccc1)C(=O)c1cnn2c(=O)cc(-c3ccc4c(c3)OCCO4)[nH]c12	≤ 10 µM	≤ 10 µM	≤ 10 µM
Nc1nn2c(=O)cc(-c3ccc(Cl)cc3)[nH]c2c1-c1ccccc1	≤ 10 µM	≤ 10 µM	≤ 10 µM

Now from value to compound:

IC50 [1]	IC50 [2]	IC50 [3]	Compound
≤ 10 µM	≤ 10 µM	≤ 10 µM	O=c1cc(-c2ccc3c(c2)OCCO3)[nH]c2c(-c3ccc(N4CCCC4)nc3)cnn12
≤ 10 µM	≤ 10 µM	≤ 10 µM	O=c1cc(-c2ccc(Cl)c(Cl)c2)[nH]c2c(-c3ccccn3)cnn12
≤ 10 µM		≤ 10 µM	O=c1cc(-c2ccccn2)[nH]c2c(-c3ccc(F)cc3)cnn12
≤ 10 µM	≤ 10 µM	≤ 10 µM	O=c1cc(-c2ccc3c(c2)OC(F)(F)O3)[nH]c2c(-c3ccccn3)cnn12
≤ 10 µM	≤ 10 µM	≤ 10 µM	O=c1cc(-c2ccc3cc[nH]c3c2)[nH]c2c(-c3ccccc3)cnn12
≤ 10 µM	≤ 10 µM	≤ 10 µM	O=c1cc(-c2ccc(F)cc2)[nH]c2c(-c3ccccn3)cnn12
≤ 10 µM	≤ 10 µM	≤ 10 µM	O=c1cc(-c2ccc3occc3c2)[nH]c2c(-c3ccccc3)c(O)nn12
≤ 10 µM	≤ 10 µM	≤ 10 µM	CCc1nn2c(=O)cc(-c3ccc4c(c3)OCO4)[nH]c2c1-c1ccccn1
≤ 10 µM	≤ 10 µM	≤ 10 µM	Cc1nn2c(=O)cc(-c3ccc4ncccc4c3)[nH]c2c1Cc1ccccc1
≤ 10 µM	≤ 10 µM	≤ 10 µM	O=c1cc(-c2cc3ccccc3o2)[nH]c2c(-c3ccccn3)cnn12
≤ 10 µM	≤ 10 µM	≤ 10 µM	Nc1nn2c(=O)cc(-c3ccc(Cl)cc3F)[nH]c2c1-c1ccccn1
≤ 10 µM	≤ 10 µM	≤ 10 µM	NC(=O)c1cnn2c(=O)cc(-c3ccc4c(c3)OCCO4)[nH]c12
≤ 10 µM	≤ 10 µM	≤ 10 µM	O=c1cc(-c2ccc3c(c2)CCO3)[nH]c2c(-c3ccccc3)cnn12
≤ 10 µM	≤ 10 µM	≤ 10 µM	Nc1nn2c(=O)cc(-c3ccc(Cl)cc3)[nH]c2c1-c1ccccn1
≤ 10 µM	≤ 10 µM	≤ 10 µM	O=c1cc(-c2ccc3c(c2)CCO3)[nH]c2c(-c3cccnc3)cnn12
≤ 10 µM	≤ 10 µM	≤ 10 µM	COc1cccc(-c2cnn3c(=O)cc(-c4ccc5c(c4)OCCO5)[nH]c23)c1
≤ 10 µM	≤ 10 µM	≤ 10 µM	Nc1nn2c(=O)cc(-c3ccc4c(c3)OCCO4)[nH]c2c1-c1ccccn1
≤ 10 µM	≤ 10 µM	≤ 10 µM	CCCNC(=O)c1cnn2c(=O)cc(-c3ccc4c(c3)OCCO4)[nH]c12
≤ 10 µM	≤ 10 µM	≤ 10 µM	Nc1nn2c(=O)cc(-c3ccc(F)cc3)[nH]c2c1-c1ccccn1
≤ 10 µM	≤ 10 µM	≤ 10 µM	O=C(NCc1ccccc1)c1cnn2c(=O)cc(-c3ccc(Cl)cc3)[nH]c12
≤ 10 µM	≤ 10 µM	≤ 10 µM	Cc1nn2c(=O)cc(-c3ccc4c(c3)OCCO4)[nH]c2c1-c1ccc(F)cc1
≤ 10 µM		≤ 10 µM	Cc1nn2c(=O)cc(-c3cccnc3)[nH]c2c1-c1ccc(F)cc1
	≤ 10 µM	≤ 10 µM	O=c1cc(-c2ccc3c(c2)OCCO3)[nH]c2c(-c3cccc(F)c3)cnn12
≤ 10 µM	≤ 10 µM	≤ 10 µM	COc1ccc(-c2cc(=O)n3ncc(-c4ccccn4)c3[nH]2)cc1OC
	≤ 10 µM	≤ 10 µM	O=c1cc(-c2ccc3c(c2)OCCO3)[nH]c2c(-c3ccc(N4CCCCC4)nc3)cnn12
≤ 10 µM	≤ 10 µM	≤ 10 µM	COc1ccccc1-c1cc(=O)n2ncc(-c3ccccn3)c2[nH]1
≤ 10 µM	≤ 10 µM	≤ 10 µM	O=c1cc(-c2ccc3c(c2)CCO3)[nH]c2c(-c3ccccn3)cnn12
≤ 10 µM	≤ 10 µM	≤ 10 µM	CC(=O)Nc1nn2c(=O)cc(-c3ccc4c(c3)OCO4)[nH]c2c1-c1ccccn1
≤ 10 µM	≤ 10 µM	≤ 10 µM	O=c1cc(-c2ccc3c(c2)OCO3)[nH]c2c(-c3cccnc3)c(O)nn12
≤ 10 µM	≤ 10 µM	≤ 10 µM	CCNc1nn2c(=O)cc(-c3ccc4c(c3)OCO4)[nH]c2c1-c1ccccn1
